Laboratory results from patent EP4775570A1, “CYP11A1 INHIBITOR, PREPARATION METHOD THEREFOR AND USE THEREOF” (Shenzhen Zhongge Biological Technology Co., Ltd., priority 2023, dated 2025).
Like-named read-outs stand apart in the source and are kept apart here.

Molecular target: T1, CYP11A1 (Homo sapiens, UniProt P05108)
T1 construct: host or cells: NCI-H295R
T1 sequence (P05108 40-521): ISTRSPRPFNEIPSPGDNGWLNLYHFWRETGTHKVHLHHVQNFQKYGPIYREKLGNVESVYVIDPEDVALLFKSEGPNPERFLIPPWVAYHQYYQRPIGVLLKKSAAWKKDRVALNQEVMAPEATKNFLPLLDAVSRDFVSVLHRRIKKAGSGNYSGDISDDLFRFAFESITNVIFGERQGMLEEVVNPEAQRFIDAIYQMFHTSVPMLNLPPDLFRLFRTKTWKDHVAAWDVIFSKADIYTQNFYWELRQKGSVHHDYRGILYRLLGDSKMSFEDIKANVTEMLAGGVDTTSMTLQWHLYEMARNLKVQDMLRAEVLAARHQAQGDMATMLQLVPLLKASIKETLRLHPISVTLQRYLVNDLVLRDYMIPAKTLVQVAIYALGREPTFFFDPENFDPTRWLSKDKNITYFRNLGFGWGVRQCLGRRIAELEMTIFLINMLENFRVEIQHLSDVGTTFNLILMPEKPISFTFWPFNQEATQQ
Assay: NCI-H295R cellular pregnenolone biosynthesis inhibition assay (ELISA method)
Format: cell-based
Conditions: 3 days incubation, pregnenolone in cell supernatant by ELISA
Experimental: The experiment aims to test the inhibitory effect of the compounds of the present disclosure on cellular pregnenolone biosynthesis, and to assess the inhibitory effect of the compounds on CYP11A1 target based on their IC50 values.
NCI-H295R cells (MINGZHOUBIO, MZ-2138) cultured in NCI-H295R complete medium (MINGZHOUBIO, MCM-0399).
Using culture medium, NCI-H295R cells were seeded into a new 384-well cell culture plate (Greiner, 781091) at a density of 5,000 cells per well, with 45µL of cell suspension per well. The test compounds were prepared by adding 5µL of compound solution at 10× concentration to each well, to a maximum final concentration of 10µM, followed by 3× serial dilution for 10 points, with a final DMSO concentration of 0.1%, centrifuging at 1,000 rpm for 1 minute at room temperature, and then incubating in a 5% CO2 cell incubator at 37°C for 3 days.
Pregnenolone ELISA kit (Abnova, KA1912) was used for detecting the content of pregnenolone in the supernatant of cell culture. Before detection, the reagents were allowed to come back to room temperature for 1 hour. After taking out the 384-well plate, the cellular supernatant was pipetted and subjected to 5× dilution with the Assay Buffer provided in the kit. A working solution of competitive molecule and a washing solution in accordance with the instructions was prepared. 50µL of diluted cellular supernatant were pipetted into the 96-well plate provided in the ELISA kit, added with 100µL of working solution of competitive molecule per well and the plate was incubated at room temperature for 1.5 hours. After discarding the liquid, the plate was washed with 300µL of washing solution per well three times and dried. After adding 150 µL of substrate chromogenic solution per well, the plate was incubated at room temperature for 10-15 minutes. After adding 50 µL of termination solution per well, the plate was incubated at room temperature for 10-15 minutes and read for absorbance at 450nm with Envision HTS Multilabel Reader.
The wells added with 1µM ODM-208 were defined as 100% inhibition (positive control), the wells containing DMSO at a final concentration of 0.1% were defined as 0% inhibition (negative control), and inhibitory ratio = (absorbance of tested sample - average absorbance of negative control)/(average absorbance of positive control - average absorbance of negative control)*100%. The data were subjected to four-parameter fitting using GraphPad Prism to calculate the IC50 values of the compounds.

[1] = NCI-H295R cells, read-out: IC50

| IC50 [1] | SMILES | IC50 (IC50, NCI-H295R cells) |
| --- | --- | --- |
| 100 to 300 nM | CC(=O)N1CCN(CCc2cc(F)c(CN3Cc4ccccc4C3)n(C)c2=O)CC1 [compound 119] | – |
| 100 to 300 nM | COc1cc(CN2Cc3ccccc3C2)ccc1CCC1(O)CCN(S(C)(=O)=O)CC1 [compound 92] | – |
| > 300 nM | CS(=O)(=O)N1CCC(CCc2ccc(CN3Cc4ccccc4C3)o2)CC1 [compound 83] | – |
| > 300 nM | CS(=O)(=O)N1CCC2(CCN(c3ccc(CN4Cc5ccccc5C4)cc3F)CC2)C1 [compound 58] | – |
| > 300 nM | CS(=O)(=O)N1CCC(COc2cnc(CN3Cc4ccccc4C3)cn2)CC1 [compound 9] | – |
| > 300 nM | OCCN1CCC(COc2cc(F)c(CN3Cc4ccccc4C3)cc2Br)CC1 [compound 55] | – |
| < 100 nM | Cn1c(CN2Cc3ccccc3C2)c(F)cc(C=CC2CCN(C(=O)OC(C)(C)C)CC2)c1=O [compound 105] | – |
| < 100 nM | COc1cc(CN2Cc3ccccc3C2)ccc1/C=C/C1CCN(S(C)(=O)=O)CC1 [compound 44] | – |
| 100 to 300 nM | COc1cc(CN2Cc3ccccc3C2)ccc1CCC1CCN(C(=O)C(F)(F)F)CC1 [compound 71] | – |
| 100 to 300 nM | Cn1c(CN2Cc3ccccc3C2)c(F)cc(C=CC2CCN(C(=O)OC(C)(C)C)CC2)c1=O [compound 103] | – |
| 100 to 300 nM | CCOc1cc(CN2Cc3ccccc3C2)ccc1CCC1CCN(S(C)(=O)=O)CC1 [compound 73] | – |
| 100 to 300 nM | CC(C)Oc1cc(CN2Cc3ccccc3C2)ccc1CCC1CCN(S(C)(=O)=O)CC1 [compound 76] | – |
| < 100 nM | CS(=O)(=O)N1CCC(COc2cc(F)c(CN3Cc4ccccc4C3)cc2F)CC1 [compound 32] | – |
| > 300 nM | CS(=O)(=O)N1CCC(COc2ccc(CN3Cc4ccccc4C3)cc2-c2ccco2)CC1 [compound 36] | – |
| < 100 nM | Cn1c(CN2Cc3ccccc3C2)c(F)cc(C=CC2CCN(S(=O)(=O)C3CC3)CC2)c1=O [compound 111] | – |
| > 300 nM | Cn1cc(OCC2CCN(S(C)(=O)=O)CC2)c(=O)cc1CN1Cc2ccccc2C1 [compound 1] | – |
| 100 to 300 nM | COc1cc(CN2Cc3ccccc3C2)ccc1C#CC1(O)CCN(S(C)(=O)=O)CC1 [compound 93] | – |
| 100 to 300 nM | COc1nc(CN2Cc3ccccc3C2)ccc1CCC1CCN(S(C)(=O)=O)CC1 [compound 65] | – |
| > 300 nM | Fc1cc(OCC2CCNCC2)c(Br)cc1CN1Cc2ccccc2C1 [compound 56] | – |
| 100 to 300 nM | CS(=O)(=O)N1CCC(CCc2cc(F)c(CN3Cc4ccccc4C3)[nH]c2=O)CC1 [compound 94] | – |

| IC50 [1] | SMILES | IC50 (IC50, NCI-H295R cells) |
| --- | --- | --- |
| < 100 nM | CCS(=O)(=O)N1CCC(CCc2ccc(CN3Cc4ccccc4C3)cc2OC)CC1 [compound 67] | – |
| < 100 nM | COc1cc(CN2Cc3ccccc3C2)ccc1CCC1CCN(C(C)=O)CC1 [compound 70] | – |
| > 300 nM | COc1cc(CN2Cc3ccccc3C2)ccc1CCC1CCS(=O)(=O)CC1 [compound 88] | – |
| 100 to 300 nM | Cn1c(CN2Cc3ccccc3C2)c(F)cc(C(F)=CC2CCN(C(=O)OC(C)(C)C)CC2)c1=O [compound 128] | – |
| > 300 nM | Cn1c(CN2Cc3ccc(F)cc3C2)c(F)cc(CCC2CCN(S(C)(=O)=O)CC2)c1=O [compound 101] | – |
| < 100 nM | Cn1c(CN2Cc3ccccc3C2)c(F)cc(-c2ccc3c(c2)CCN(S(C)(=O)=O)C3)c1=O [compound 120] | – |
| > 300 nM | COc1cc(CN2Cc3ccccc3C2)ccc1C#CC1=CCS(=O)(=O)CC1 [compound 97] | – |
| < 100 nM | CC(C)(C)OC(=O)N1CCC(COc2cc(F)c(CN3Cc4ccccc4C3)cc2Br)CC1 [compound 46] | – |
| < 100 nM | CS(=O)(=O)N1CCC(C=Cc2ccc(CN3Cc4ccccc4C3)cc2C#N)CC1 [compound 60] | – |
| < 100 nM | COc1cc(CN2Cc3ccccc3C2)ccc1CCC1CCN(C(=O)C(C)(C)C)CC1 [compound 81] | – |
| < 100 nM | CC(C)c1cc(CN2Cc3ccccc3C2)ccc1OCC1CCN(S(C)(=O)=O)CC1 [compound 14] | – |
| 100 to 300 nM | Cn1c(CN2Cc3cccnc3C2)c(F)cc(CCC2CCN(S(C)(=O)=O)CC2)c1=O [compound 98] | – |
| – | CS(=O)(=O)N1CCC(COc2cc(F)c(CN3Cc4ccccc4C3)cc2C#N)CC1 [compound 30] | < 100 nM |
| < 100 nM | CS(=O)(=O)N1CCC(COc2ccc(CN3Cc4ccccc4C3)cc2Br)CC1 [compound 17] | – |
| < 100 nM | CS(=O)(=O)N1CCC(COc2cc(F)c(CN3Cc4ccccc4C3)cc2O)CC1 [compound 52] | – |
| 100 to 300 nM | Cn1c(CN2Cc3ccccc3C2)c(F)cc(CCN2CCN(S(C)(=O)=O)CC2)c1=O [compound 118] | – |
| 100 to 300 nM | C=CS(=O)(=O)N1CCC(CCc2ccc(CN3Cc4ccccc4C3)cc2OC)CC1 [compound 82] | – |
| > 300 nM | CS(=O)(=O)N1CCC(CCn2ccc(CN3Cc4ccccc4C3)cc2=O)CC1 [compound 5] | – |
| < 100 nM | COc1cc(CN2Cc3ccccc3C2)ccc1CCC1CCN(C(=O)CC#N)CC1 [compound 68] | – |
| > 300 nM | CC(C)(C)OC(=O)N1CCC2(CCN(c3ccc(CN4Cc5ccccc5C4)cc3F)CC2)C1 [compound 51] | – |

| IC50 [1] | SMILES | IC50 (IC50, NCI-H295R cells) |
| --- | --- | --- |
| > 300 nM | CS(=O)(=O)N1CCC(CCc2cnc(CN3Cc4ccccc4C3)s2)CC1 [compound 87] | – |
| < 100 nM | Cn1c(CN2Cc3ccccc3C2)c(F)cc(CCN2CCN(C(=O)OC(C)(C)C)CC2)c1=O [compound 129] | – |
| > 300 nM | Cn1c(CN2Cc3ccncc3C2)c(F)cc(CCC2CCN(S(C)(=O)=O)CC2)c1=O [compound 99] | – |
| < 100 nM | C=Cc1cc(CN2Cc3ccccc3C2)ccc1OCC1CCN(S(C)(=O)=O)CC1 [compound 26] | – |
| > 300 nM | Cn1c(CN2Cc3ccccc3C2)c(F)cc(-c2ccc3c(n2)CCN(S(C)(=O)=O)C3)c1=O [compound 127] | – |
| 100 to 300 nM | CS(=O)(=O)N1CCC(C=Cc2cc(F)c(CN3Cc4ccccc4C3)cc2C#N)CC1 [compound 61] | – |
| < 100 nM | COC(=O)N1CCC(CCc2ccc(CN3Cc4ccccc4C3)cc2OC)CC1 [compound 80] | – |
| > 300 nM | COc1cc(CN2Cc3ccccc3C2)ncc1OCC1CCN(S(C)(=O)=O)CC1 [compound 2] | – |
| < 100 nM | CS(=O)(=O)N1CCC(COc2c(F)cc(CN3Cc4ccccc4C3)cc2Br)CC1 [compound 34] | – |
| < 100 nM | Cn1c(CN2Cc3ccccc3C2)c(F)cc(C(O)CC2CCN(C(=O)OC(C)(C)C)CC2)c1=O (stereo not drawn) [compound 122] | – |
| > 300 nM | CS(=O)(=O)N1CCC(COc2ccc(CN3Cc4ccccc4C3)cn2)CC1 [compound 7] | – |
| < 100 nM | CS(=O)(=O)N1CCC(COc2ccc(CN3Cc4ccccc4C3)cc2F)CC1 [compound 15] | – |
| < 100 nM | CCS(=O)(=O)N1CCC(C=Cc2cc(F)c(CN3Cc4ccccc4C3)n(C)c2=O)CC1 [compound 110] | – |
| 100 to 300 nM | CS(=O)(=O)N1CCC(CCc2ncc(CN3Cc4ccccc4C3)s2)CC1 [compound 86] | – |
| < 100 nM | CC1CC(CCc2cc(F)c(CN3Cc4ccccc4C3)n(C)c2=O)CCN1S(C)(=O)=O (stereo not drawn) [compound 109] | – |
| < 100 nM | CS(=O)(=O)N1CCC(COc2ccc(CN3Cc4ccccc4C3)cc2O)CC1 [compound 18] | – |
| 100 to 300 nM | COc1cc(CN2Cc3ccccc3C2)ccc1OCC1CCN(S(C)(=O)=O)CC1 [compound 19] | – |
| < 100 nM | [2H]C([2H])(c1c(F)cc(CCC2CCN(C(=O)OC(C)(C)C)CC2)c(=O)n1C)N1Cc2ccccc2C1 [compound 121] | – |
| > 300 nM | CS(=O)(=O)N1CCC(COc2ccc(CN3Cc4ccccc4C3)cc2-c2nccs2)CC1 [compound 38] | – |

| SMILES | IC50 [1] | IC50 (IC50, NCI-H295R cells) |
| --- | --- | --- |
| CNC(=O)c1cc(CN2Cc3ccccc3C2)ccc1OCC1CCN(S(C)(=O)=O)CC1 [compound 24] | > 300 nM | – |
